Test results taken from patent US20250197388A1, “COMPOUNDS, PHARMACEUTICAL COMPOSITIONS AND METHODS FOR TREATING INFLAMMATORY BOWEL DISEASE” (FLAGSHIP PIONEERING INNOVATIONS VI, LLC, priority 2022, published 2025).

Experiments:
Dectin-1b = molecular target: T1, Dectin-1b (Homo sapiens, UniProt Q9BXN2); assay: Dectin-1 assay, HEK-Blue Dectin-1b SEAP reporter cells stimulated with beta-glucan peptide (BGP); format: cell-based; conditions: HEK-Blue Dectin-1b cells; compounds at 1, 10 or 30 μM for 6 hours, then BGP 30 μg/mL 16-18 hours; SEAP adjusted by cell viability
T1 construct: host or cells: HEK-Blue Dectin-1b reporter cells (HEK293-derived)
T1 sequence (Q9BXN2 1-201 isoform Q9BXN2-2): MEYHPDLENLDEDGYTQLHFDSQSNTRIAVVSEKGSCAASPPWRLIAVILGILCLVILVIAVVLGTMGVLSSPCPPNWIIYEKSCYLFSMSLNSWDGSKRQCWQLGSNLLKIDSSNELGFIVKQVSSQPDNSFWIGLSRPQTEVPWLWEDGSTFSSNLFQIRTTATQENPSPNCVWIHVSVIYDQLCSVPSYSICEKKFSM
Description: Compounds described herein are added to mammalian cells for bioactivity assessment. The HEK-Blue Dectin-1b cells line (InVivoGen) releases a reporter protein (secreted embryonic alkaline phosphatase, SEAP) to the culture supernatant in response to Dectin-1 activation. HEK-Blue reporter cells were grown in DMEM culture media with 10% decomplemented fetal calf serum (InvivoGen, 1% Pen/Strep antibiotic (InvivoGen), 0.2% Normocin antibiotic (InvivoGen). On the day prior to the assay, cells were seeded in a 96 flat-bottom well plate at 50,000 cells/well and further incubated for 20 hours. On the day of the assay cells were incubated with 1 μM, 10 μM or 30 μM of the compounds described herein or with 1 μM of the SYKi IV Dectin-1b Inhibitor (Millipore) or with DMSO (vehicle control) for 6 hours, followed by the addition of beta-glucan peptide (BGP, a Dectin-1 ligand at 30 μg/mL) and incubation for 16-18 hours. After incubation was concluded, the cultures supernatants were collected and Dectin-1 related activity was assessed by measurement of the SEAP-reporter protein presence, using Quanti-Blue assay (Invivogen) and these values were adjusted by the Cell Viability levels that was assessed using the Cell-Titer-Glo2 Reagent (Promega).
Results represent cell number adjusted SEAP levels in a triplicate setting for each condition and cell numbers and viability corrections reflected less than 5% corrections. See, e.g., FIG. 1 for compound A-3.

[1] = test system: Zymosan-induced production of IL-12p40 in monocyte-derived dendritic cells; assay: Monocyte derived DC (MoDC) assay, Zymosan-induced IL-12p40 (Luminex/ELISA); format: cell-based, human
Source text: Monocyte derived DC (MoDC) were differentiated from healthy human donor derived CD14+ monocytes. Commercially available freshly prepared Leukopaks were obtained from healthy blood donor and kept refrigerated on ice before spin centrifuged and the pelleted cells are rinsed and resuspended with MACS buffer (Miltenyi Biotec). Next, CD14+ monocytes were purified using MultiMACS™ Cell24 Separator-Plus instrumentation and reagents according to the manufacturer (Miltenyi Biotec) instructions. The resulting purified CD14^+ cell fraction was washed, enumerated, and subsequently cryopreserved for later use. At the experiment first day cryopreserved CD14′ cells were thawed, rinsed with culture media, and then resuspended in culture media principally composed of RPMI (Invitrogen) supplemented with 10% v/v heat inactivated FBS. For generation of MoDC, these CD14^+ cells were enumerated and seeded into 75 cm^2 tissue culture flasks in 30 mL of culture media supplemented with GM-CSF (40-100 ng/mL) and IL-4 (25 ng/mL). Every other day, half of the culture media was replaced with fresh media (containing the same cytokine supplementation) and after 6-7 days of culture, fully differentiated and matured MoDC were obtained as confirmed by conventional Immuno-phenotype markers (levels of expression or absence of surface CD80, CD83, CD86, CD209, HLA-DR, CD14 & CD64) that were verified by flow-cytometry. Fully differentiated (mature) MoDCs, were seeded into 96 flat-well plates and incubated with a various concentration of the compound described herein, or with control solution (DMSO), or with the pharmacologic inhibitors Cyclosporin-A (CsA) and BAY 61-3606 (which is a known inhibitor of Syk kinase) for 6 hours. Next, the MoDC culture well were added with Dectin-1(CLEC7a1)-ligand (Zymosan at 5 μg/mL), or the Toll-like receptor agonist R848, and further incubated for 18-20 hours. After incubation concluded, culture supernatants were collected, and the levels of inflammatory cytokines and chemokines was measured in a triplicate setting for each condition by Luminex® multiplex assay (FIG. 2) or by ELISA (FIG. 3).

[2] = Compound interconversion monitored by 1H-NMR in neutral aqueous buffer; format: physicochemical; conditions: 37° C. in the neutral aqueous buffer
Description: This examples provide the kinetics of compounds A-2 and A-3. More specifically, A-6 is a mixture of compounds A-2 and A-3 and interconvert in solutions.
In this example, A-6 was combined with […] of Na3PO4, DCl, and D2O at a pH of 7-7.5. This solution was then monitored using 1H-NMR at 37° C.
Interconversion between compounds A-2 and A-3 was seen and monitored for 5 days. See, Table 1.

time to nearly reach interconversion equilibrium [2]: about 3 hours
Compound: CN1[C@@H](C(=O)O)CS[C@@H]1[C@@H]1CSC(c2ccccc2O)=N1 (single isomer, unassigned) [Compound A-2]
Activity (Dectin-1b): <30 µM
inhibition of Zymosan-induced production of IL-12p40 ([1]; MoDC from healthy human donors 1, 2 and 3, 15.5 nM to 1 μM (FIGS. 6A-6C)): inhibition
concentration of maximal inhibition of Zymosan-induced IL-12p40 ([1]; donors 1, 2 and 3, the highest concentration tested): 1 µM
